From PubChem BioAssay AID1508603 (National Center for Advancing Translational Sciences (NCATS), 2020) come the findings set out here.

A value given as a limit tells only on which side of the number the result lay.

This data set concerns human liver cytosol stability, half-life. Briefly: NCATS Human Liver Cytosol Stability Profiling. Particulars: higher = more stable. The method, then: Assay submitter (PI): Pranav Shah Ph.D.
NIH Center for Advancing Translational Sciences
Over the last few decades, chemists have become skilled at designing compounds that avoid cytochrome P (CYP) 450 mediated metabolism. Typical screening assays are performed in liver microsomal fractions and it is possible to overlook the contribution of cytosolic enzymes until much later in the drug discovery process. Few data exist on cytosolic enzyme-mediated metabolism and no reliable tools are available to chemists to help design away from such liabilities. In this study, we screened 1450 compounds for liver cytosol-mediated metabolic stability and extracted transformation rules that might help medicinal chemists in optimizing compounds with these liabilities. […] Matched molecular pairs analysis was performed in conjunction with qualitative-structure activity relationship modeling to identify chemical structure transformations affecting cytosolic stability. The transformation rules were prospectively validated on the test set. In addition, selected rules were validated on a diverse chemical library and the resulting pairs were experimentally tested to confirm whether the identified transformations could be generalized. The validation results, comprising nearly 250 library compounds and corresponding half-life data, are made publicly available. The datasets were also used to generate in silico classification models, based on different molecular descriptors and machine learning methods, to predict cytosol-mediated liabilities. To the best of our knowledge, this is the first systematic in silico effort to address cytosolic enzyme-mediated liabilities (Shah 2020).
Shah, P., Siramshetty, V.B., Zakharov, A.V. et al. Predicting liver cytosol stability of small molecules. J Cheminform 12, 21 (2020). https://doi.org/10.1186/s13321-020-00426-7
Compounds are classified as unstable (t 1/2 < 30 min) or stable (t 1/2 > 30 min).
1. Shah, P. et al. An Automated High-Throughput Metabolic Stability Assay Using an Integrated High-Resolution Accurate Mass Method and Automated Data Analysis Software. Drug Metab Dispos 44, 1653-1661 (2016). PMID 27417180

Usually half-life stands for how long it takes for the measured level to halve. In turn, `CN1CCN(C(=O)c2cc(-c3cccnc3)nc3c2cnn3C)CC1` returned a half-life of over 2 h.

In the case of `N#Cc1ccnc(-c2nnc3ccc(NCc4cnccn4)nn23)c1`, the half-life is over 2 h.

For `CN(C)[C@@H]1CN(C(=O)c2ccc(C#N)cc2)C[C@H]1CO`, the half-life was over 2 h.

For `O=C(Nc1ncc(-c2cccc(F)c2)c2c1OCC2)c1ccncc1`, the half-life was over 2 h.

`Cc1noc(-c2cn(C3CCN(C(=O)c4cccc(F)c4)C3)nn2)n1` (configuration not stated) yielded a half-life of over 2 h.

`COc1ccc(CN2CCC3(C2)NC(=O)c2ccccc2O3)cc1` (configuration not stated) displayed a half-life of over 2 h.

In the case of `COc1ccc(CN2CC(Oc3ccc(F)cc3C)C2)cc1`, the half-life came out at 0.35 h.

As to `COCCNC(=O)c1nc2sccn2c1-c1cccc(OC)c1`, the half-life was over 2 h.

`Cc1ccccc1-c1[nH]nc2ncc(-c3ccccc3C#N)nc12` yielded a half-life of over 2 h.

`N#Cc1ccc(CN2CC(N3CCc4ccccc43)C2)cc1` came in with a half-life of 1.61 h.

`Cc1ccsc1-c1[nH]nc2ncc(-c3ccccc3)nc12`: the half-life was 0.308 h.

The molecule `COc1ccc(CN2CCC3(COc4ccccc4C(=O)N3)C2)cc1` (configuration not stated) displayed a half-life of 0.578 h.

Molecule `COc1cccc(CN2CC[C@H](c3nc4ccccc4[nH]3)C2)c1` came in with a half-life of over 2 h.

On to `O=C(c1cccs1)N1CCC(Oc2cccc(F)c2)C1` (configuration not stated), for which the half-life worked out at 0.29 h.

Regarding `O=C(c1ccsc1)N1CCC(Oc2cccc(F)c2)C1` (configuration not stated), the half-life came to 1.38 h.

`N#Cc1ccc(CN2CCC3(COc4ccccc4C(=O)N3)C2)cc1` (configuration not stated) returned a half-life of 0.64 h.

Molecule `Fc1cccc(-c2cnc([C@@H]3COCCN3Cc3cnc[nH]3)[nH]2)c1` displayed a half-life of 0.988 h.

Molecule `O=c1c2nc(Nc3cccc(F)c3)ccc2ncn1-c1ccccc1` came in with a half-life of 1.57 h.

The molecule `CCN1CCN(C(=O)c2cc(-c3ccc(F)cc3)nc3c2cnn3C)CC1` registered a half-life of over 2 h.

On to `CC1(c2ccccc2)N(Cc2ccccc2)C(=O)OC12CCN(Cc1cccc(C#N)c1)CC2` (configuration not stated), for which the half-life was over 2 h.

For `COc1cccc(CN2CC[C@H](c3nnc(-c4ccco4)o3)C2)c1`, the half-life came out at 1.97 h.

In the case of `O=C(O)c1ccc(CN2CC(COc3ccccc3)C3(C2)CN(c2ccccc2)C3)cc1` (configuration not stated), the half-life was over 2 h.

As to `CCN1CCN(C(=O)c2nc3sccn3c2-c2cccc(C#N)c2)CC1`, the half-life was over 2 h.

Molecule `COc1cccc(CN2CCC3(CC2)OCCN(C)C3=O)c1` yielded a half-life of over 2 h.

`COc1ccccc1CN1CCC2(CC1)CC(O)CCO2` (configuration not stated) gave a half-life of over 2 h.

`Cc1nn2c(c1-c1ccccc1Oc1ccccc1)N(Cc1ccc(C(=O)O)cc1)CCC2` displayed a half-life of over 2 h.

As to `CN1CCN(C(=O)Cc2cccn2-c2ccc(F)cc2)CC1`, the half-life was over 2 h.

`Fc1cccc(-c2noc(-c3nc(-c4ccncc4)no3)n2)c1` showed a half-life of 0.44 h.

For the molecule `CNC(=O)[C@@H]1CN(C(=O)c2cccc(C#N)c2)C[C@H]1COC`, the half-life was 1.44 h.

In turn, `Fc1cccc(-c2cnc(Nc3cccnc3)c3c2CCO3)c1` came in with a half-life of over 2 h.

For `COc1cncc(Nc2ncc(-c3cccc(F)c3)c3c2OCC3)c1`, the half-life stood at 1.34 h.

On to `COc1ccc(CN2CCC(N3CCNC3=O)CC2)cc1`, for which the half-life is over 2 h.

The molecule `O=C(O)c1ccc(-c2ccc(N3CCCCCC3)nc2)cc1` yielded a half-life of over 2 h.

The molecule `O=C(Nc1cnc(-c2ccccc2)nc1)c1cccc(F)c1` registered a half-life of 0.867 h.

The molecule `CCN1CCN(C(=O)c2nc3sccn3c2-c2cccc(OC)c2)CC1` came in with a half-life of over 2 h.

The molecule `Fc1cccc(Nc2ncc(-c3cccnc3)c3c2OCC3)c1` had a half-life of 1.28 h.

In turn, `O=c1c2nc(Nc3cccc(F)c3)ccc2ncn1-c1cccnc1` came in with a half-life of 1.61 h.

For `Cc1noc(-c2cn(C3CCN(C(=O)c4ccccc4)C3)nn2)n1` (configuration not stated), the half-life was over 2 h.

With `COCCOC1CCN(C(=O)Nc2cccc(F)c2)CC1`, the half-life was over 2 h.

In turn, `COCCNc1nc(N)nc2c1CCN(C(=O)c1cscn1)CC2` registered a half-life of over 2 h.

Molecule `Fc1cccc(Nc2ncc(-c3cncnc3)c3c2OCC3)c1` showed a half-life of over 2 h.

For the molecule `CCOCCOC1CCN(C(=O)Nc2ccccc2)CC1`, the half-life is over 2 h.

`COc1ccc(CN2CC(Oc3ccc(F)c(F)c3)C2)cc1` came in with a half-life of 0.5 h.

For `COc1cccc(-c2c(C(=O)NC3CC3)nc3sccn23)c1`, the half-life was over 2 h.

For the molecule `CC(=O)N1CCC(Cc2ccc(C(=O)O)cc2)CC1`, the half-life was over 2 h.

As for `O=C(c1ccc(-c2ncc3cnc(-c4cccc(F)c4)cn23)cc1)N1CCc2cccnc21`, the half-life amounted to 0.288 h.

Molecule `CNC(=O)[C@@H]1CN(C(=O)c2cccc(OC)c2)C[C@H]1COC` showed a half-life of over 2 h.

`COc1cccc(-c2c(C(=O)N3CCOCC3)nc3sccn23)c1` returned a half-life of over 2 h.

As for `Cc1nn2c(c1-c1ccccc1Oc1ccccc1)N(Cc1cccc(C#N)c1)CCC2`, the half-life was over 2 h.

`COC1CCC12CCN(C(=O)c1ccc(C#N)cc1)CC2` (configuration not stated) yielded a half-life of 1.32 h.

Regarding `O=C(c1cccs1)N1CCC(Oc2ccccc2)C1` (configuration not stated), the half-life is 0.638 h.

The molecule `O=C(O)c1ccc(CN2CCOC[C@H]2c2ncc(-c3ccc(F)cc3)[nH]2)cc1` showed a half-life of over 2 h.

Take `N#Cc1ccc(CN2CCC3(C2)NC(=O)c2ccccc2O3)cc1` (configuration not stated): the half-life is over 2 h.

As for `O=C(O)c1ccc2c(c1)n(Cc1cccc(F)c1)c(=O)c1ccnn12`, the half-life was over 2 h.

`O=C(NCCCn1ccnc1)c1ccc(-c2ncc3cnc(-c4cccc(F)c4)cn23)cc1` displayed a half-life of 0.847 h.

`O=C(c1ccsc1)N1CCC(Oc2ccccc2)C1` (configuration not stated) yielded a half-life of 0.667 h.

The molecule `COc1cccc(-c2cn3c(n2)N(C(=O)c2ccco2)CCC3)c1` had a half-life of 0.993 h.
